Experimental data from US20030157715A1, “Modulation of chromosome function by chromatin remodeling agents” (priority 2000, published 2003).
“And” between values parts separate entries of the source, which are not always exact repeats. Equal entries are not always repeated.

Key:
[1] = target: W9 probe (tandem repeats of an oligonucleotide with a 9 bp AT-tract); experiment: DNase I footprinting on probe W9; type: binding
Source text: DNase I cleavage pattern in the presence of P9 and P7. Ligand concentrations are indicated at the top of each lane. The position of each of the AT-tracts is indicated by square brackets. […] This probe is composed of head-to-tail tandem repeats of an oligonucleotide with a 9 bp AT-tract.
(§1) Synthetic oligonucleotides […] and […] were hybridized to obtain the W9 probe, oligomerized by ligation and digested with BamHI and BglII to obtain different tandem repeats. The following oligonucleotides were prepared identically: GAF31 is composed of the oligonucleotides […] and […] and, BrownI of oligonucleotides […] and […]. Fragments were purified on low-melt agarose gels and then cloned into a modified pSP64 vector, cut by BamHI and BglII. End-labeling was carried out following digestion with HindIII and a fill-in reaction with Klenow DNA polymerase. The labeled plasmid was cut with PvuII and the target fragments purified from low-melting agarose gels. The 657 bp EcoR1/Hinf1 fragment of the Drosophila histone SAR was cloned into the SmaI site of the modified pSP64 plasmid. This SAR probe was end-labeled following-digestion with EcoR1, then cut with ClaI and the resulting 347 bp fragment purified from low-melting agarose gels.
All reactions were performed in a total volume of 40 μl. A polyamide stock solution or buffer (for reference lanes) was added to an assay buffer containing 20 kcpm radiolabeled DNA, affording final concentrations of 10 mM Tris-HCl (pH 7.4), 10 mM KCl, 10 MM MgCl, 5 mM CaCl2, 0.5 mM EDTA, 0.5 mM EGTA, 1 mM DTT and 0.1% digitonine. The solutions were allowed to equilibrate for at least 2 h at room temperature. Footprinting reactions were initiated by the addition of 2 μl of a DNase stock solution (containing −100 μg DNase I in buffer) and allowed to proceed for 2 min at room temperature. The reactions were stopped by addition of 10 μl of a solution containing 1.25 M NaCl, 100 mM EDTA. Next, 5 μl of a 1% SDS solution was added, followed by 2 μl of a solution containing 1 μg poly(dA-dT), 1 μg salmon sperm DNA and 10 μg glycogen and the DNA was ethanol precipitated (20 min at −20 C.). The reactions were resuspended in 4 μl of 80% formamide loading buffer, denatured 10 min at 85 C., cooled on ice and electrophoresed on 8% polyacrylamide denaturing gels (5% cross-link, 8 M urea) at 30 W for 1 h. The gels were dried and exposed o/n at −70 C.

[2] = system: CACAA repeats; experiment: DNase I footprinting on CACAA repeats (Brown I probe); type: binding
Source text: A drawback of this binding model, as opposed to conventional 2:1 drug to DNA complexes, is that P31 is expected to bind degenerate GC and CG base pairs, albeit with different affinity. The consensus sequence can thus be defined as SWSWWSWSWW, where S stands for a G or C and W for A or T. To evaluate binding of P31 to CACAA repeats, we used a second probe that contains two of these repeats as well as five tandem GAGAA repeats. […] Again, it is observed than this molecule binds as a 1:1 drug to DNA complex in an orientation as indicated by arrowheads (FIG. 3A). We propose that special structural features of AT-tracts and GAGAA repeats might favor 1:1 DNA to drug complexes.
as §1, with “The 657 bp EcoR1/Hinf1 fragment of the Drosophila histone SAR was cloned into the SmaI site of the modified pSP64 plasmid. This SAR probe was end-labeled following-digestion with EcoR1, then cut with ClaI and the resulting 347 bp fragment purified from low-melting agarose gels.” left out

| SMILES | affinity for AT-tracts of 9 Ws (in words) [1] | better affinity for W9 than P7 ([1]; P9 versus P7, footprints on W9) [fold] | Kd ([1]; apparent binding affinity, DNase I footprinting, probe W9, read-out: Kdapp W9) | affinity for CACAA repeats relative to GAGAA repeats [2] |
| --- | --- | --- | --- | --- |
| CN(C)CCCNC(=O)CCNC(=O)c1cc(NC(=O)c2cc(NC(=O)c3cc(NC(=O)CCNC(=O)c4cc(NC(=O)c5cc(NC(=O)c6cccn6C)cn5C)cn4C)cn3C)cn2C)cn1C [Compound P9, PyPyPy-β-PyPyPy-β-Dp] | subnanomolar affinity | 100 | ~0.75 nM and 0.75 nM | – |
| CN(C)CCCNC(=O)CCNC(=O)c1nc(NC(=O)CCNC(=O)c2nc(NC(=O)CCNC(=O)c3cc(NC(=O)c4nc(NC(=O)CCNC(=O)c5nccn5C)cn4C)cn3C)cn2C)cn1C [Compound P31, Im-β-Im-Py-β-Im-β-Im-β-Dp] | – | – | – | approximately five fold lower affinity |
